Tests used:
Trichomonas vaginalis [1] = assay: Trichomonicidal activity against Trichomonas vaginalis JH31A#4 trophozite assessed as inhibition of parasite growth after 24 hrs by resazurin redox dye based fluorimetric microtiter method; assay type: functional, organism-based; settings: JH31A#4, 24 h
Trichomonas vaginalis [2] = assay: Trichomonicidal activity against Trichomonas vaginalis JH31A#4 trophozite assessed as inhibition of parasite growth at 300 uM after 24 hrs by resazurin redox dye based fluorimetric microtiter method; assay type: functional; settings: JH31A#4, 24 h
Trichomonas vaginalis [3] = assay: Trichomonicidal activity against Trichomonas vaginalis JH31A#4 trophozite assessed as inhibition of parasite growth at 150 uM after 24 hrs by resazurin redox dye based fluorimetric microtiter method; assay type: functional; settings: JH31A#4, 24 h
Trichomonas vaginalis [4] = assay: Trichomonicidal activity against Trichomonas vaginalis JH31A#4 trophozite assessed as inhibition of parasite growth at 75 uM after 24 hrs by resazurin redox dye based fluorimetric microtiter method; assay type: functional; settings: JH31A#4, 24 h
Trichomonas vaginalis [5] = assay: Trichomonicidal activity against Trichomonas vaginalis JH31A#4 trophozite assessed as inhibition of parasite growth at 37.5 uM after 24 hrs by resazurin redox dye based fluorimetric microtiter method; assay type: functional; settings: JH31A#4, 24 h
Trichomonas vaginalis [6] = assay: Trichomonicidal activity against Trichomonas vaginalis JH31A#4 trophozite assessed as inhibition of parasite growth at 18.75 uM after 24 hrs by resazurin redox dye based fluorimetric microtiter method; assay type: functional; settings: JH31A#4, 24 h
Trichomonas vaginalis [7] = assay: Trichomonicidal activity against Trichomonas vaginalis JH31A#4 trophozite assessed as inhibition of parasite growth at 9.37 uM after 24 hrs by resazurin redox dye based fluorimetric microtiter method; assay type: functional; settings: JH31A#4, 24 h
Vero = assay: Cytotoxicity against African green monkey Vero cells at 300 uM after 24 hrs by resazurin redox dye based fluorimetric microtiter method; assay type: cell-based; settings: chlorocebus sabaeus
[8] = Cytotoxicity against African green monkey Vero cells assessed as inhibition of cell growth after 24 hrs by resazurin redox dye based fluorimetric microtiter method; settings: chlorocebus sabaeus
[9] = Selectivity index, ratio of CC50 for African green monkey Vero cells to IC50 for Trichomonas vaginalis JH31A#4 trophozite; assay type: functional
Trichomonas vaginalis [10] = assay: Trichomonicidal activity against Trichomonas vaginalis C-1:NIH trophozoites infected in NMRI mouse assessed as reduction of pathogenicity at 25 mg/kg/day, po administered for 7 days from day 3 to day 10 post-infection measured at day 15 post-infection; assay type: functional
Trichomonas vaginalis [11] = assay: Trichomonicidal activity against Trichomonas vaginalis JH31A#4 trophozite assessed as inhibition of parasite growth at 10 ug/ml after 24 hrs by resazurin redox dye based fluorimetric microtiter method; assay type: functional; settings: JH31A#4, 24 h, read-out: GI
Trichomonas vaginalis [12] = assay: Trichomonicidal activity against Trichomonas vaginalis C-1:NIH trophozoites infected in NMRI mouse assessed as reduction of pathogenicity at 50 mg/kg, po administered for 7 days from day 3 to day 10 post-infection measured at day 15 post-infection; assay type: functional
Trichomonas vaginalis [13] = assay: Trichomonicidal activity against Trichomonas vaginalis C-1:NIH trophozoites infected in NMRI mouse assessed as reduction of pathogenicity at 100 mg/kg, po administered for 7 days from day 3 to day 10 post-infection measured at day 15 post-infection; assay type: functional
Mus musculus = assay: Toxicity against NMRI mouse infected with Trichomonas vaginalis C-1:NIH trophozoites assessed as animal death at 50 to 100 mg/kg, po administered for 7 days from day 3 to day 10 post-infection measured at day 15 post-infection; assay type: organism-based; settings: in vivo, 168 h

| SMILES | IC50 (Trichomonas vaginalis [1]) [µM] | inhibition at 300 µM (Trichomonas vaginalis [2]) [%] | inhibition at 150 µM (Trichomonas vaginalis [3]) [%] | inhibition at 75 µM (Trichomonas vaginalis [4]) [%] | inhibition at 37.5 µM (Trichomonas vaginalis [5]) [%] | inhibition at 18.75 µM (Trichomonas vaginalis [6]) [%] | inhibition at 9.37 µM (Trichomonas vaginalis [7]) [%] | Activity (Vero) [%] | CC50 at 24 h [8] [µM] | Ratio CC50/IC50 [9] | inhibition in vivo at 25 mg/kg/day (Trichomonas vaginalis [10]) [%] | inhibition of growth at 10 µg/mL (Trichomonas vaginalis [11]) [%] | inhibition in vivo at 50 mg/kg (Trichomonas vaginalis [12]) [%] | inhibition in vivo at 100 mg/kg (Trichomonas vaginalis [13]) [%] | Activity (Mus musculus) |
| --- | --- | --- | --- | --- | --- | --- | --- | --- | --- | --- | --- | --- | --- | --- | --- |
| Cc1ncc([N+](=O)[O-])n1CCO [METRONIDAZOLE] | 4.16 | 100 | 100 | 100 | 99.4 | 96 | 82.7 | 0 | > 600 | >10 | 94 | – | – | – | – |
| Cn1c(=O)c(=O)n(C)c2cc([N+](=O)[O-])ccc21 | 235 | 61.4 | 35.4 | 22.5 | 18.6 | 15.8 | 12.9 | – | – | – | – | – | – | – | – |
| Cn1c(=O)c(=O)[nH]c2cc([N+](=O)[O-])ccc21 | 111 | 41.7 | 39 | 38.6 | 33.7 | 17.8 | 8.89 | – | – | – | – | – | – | – | – |
| O=C1CN(CCCO)c2ccc([N+](=O)[O-])cc2N1 | 102 | 84 | 68.1 | 28.4 | 26.6 | 4.5 | 3.66 | – | – | – | – | – | – | – | – |
| CN(C)CCN1CC(=O)N(C)c2cc([N+](=O)[O-])ccc21 | 50.7 | 100 | 99.9 | 73.9 | 20.4 | 6.7 | 1.36 | 17.29 | 648 | 12.77 | – | 7 | – | – | – |
| CCN(CC)CCCN1CC(=O)N(C)c2cc([N+](=O)[O-])ccc21.Cl | 32.4 | 100 | 100 | 96.1 | 55.5 | 14 | 1.8 | 10.81 | 1240 | 38.07 | – | – | – | – | – |
| CN1C(=O)CN(CCCCCCl)c2ccc([N+](=O)[O-])cc21 | – | – | – | – | – | – | – | – | – | – | – | 73 | – | – | – |
| O=c1[nH]c2cc([N+](=O)[O-])ccc2n(CCCCCCl)c1=O | 147 | 94 | 47.1 | 9.7 | 0.85 | 0.42 | 0 | – | – | – | – | – | – | – | – |
| O=c1[nH]c2cc([N+](=O)[O-])ccc2n(CCCCCCCl)c1=O | 106 | 95.8 | 70.8 | 45.1 | 15.1 | 17 | 9.43 | – | – | – | – | – | – | – | – |
| Cl.O=C1CN(CCN2CCCCC2)c2ccc([N+](=O)[O-])cc2N1 | 30.7 | 99 | 82.2 | 78.3 | 45.6 | 32.7 | 26 | 1.51 | > 300 | >10 | – | – | – | – | – |
| CN1C(=O)CN(CCCN2CCCCC2)c2ccc([N+](=O)[O-])cc21 | 110 | 99.3 | 63.3 | 28.4 | 26.6 | 18.6 | 6.97 | – | – | – | – | 7 | – | – | – |
| CN(C)CCN1CC(=O)Nc2cc([N+](=O)[O-])ccc21.Cl | 36.8 | 98.5 | 96.9 | 83.7 | 40.8 | 28.4 | 5.16 | 0 | > 300 | >10 | – | 7 | – | – | – |
| CN1C(=O)CN(CCCCCCCl)c2ccc([N+](=O)[O-])cc21 | – | – | – | – | – | – | – | – | – | – | – | 94 | – | – | – |
| CN1C(=O)CN(CCCO)c2ccc([N+](=O)[O-])cc21 | 60.7 | 94.8 | 77.2 | 48.4 | 33.4 | 19 | 6.39 | 5.07 | > 300 | >10 | – | – | – | – | – |
| Cn1c(=O)c(=O)n(CCCCCl)c2ccc([N+](=O)[O-])cc21 | 179 | 68.5 | 52.7 | 36.2 | 20.1 | 19.9 | 11.8 | – | – | – | – | – | – | – | – |
| Cl.O=C1CN(CCCN2CCCCC2)c2ccc([N+](=O)[O-])cc2N1 | 18.3 | 100 | 98.9 | 82.4 | 70.3 | 58.4 | 24.2 | 3.26 | > 300 | >10 | – | 7 | 50.7 | 46.1 | Non-toxic |
| O=C1CN(CCCCCl)c2ccc([N+](=O)[O-])cc2N1 | – | – | – | – | – | – | – | – | – | – | – | 73 | – | – | – |
| O=c1[nH]c2cc([N+](=O)[O-])ccc2n(CCCCCBr)c1=O | 145 | 79.6 | 49 | 20.1 | 11.6 | 4.09 | 0 | – | – | – | – | – | – | – | – |
| CCN(CC)CCCN1CC(=O)Nc2cc([N+](=O)[O-])ccc21.Cl | 38.9 | 88.6 | 64.2 | 59 | 55.5 | 28.8 | 23.1 | 0.16 | > 300 | >10 | – | – | – | – | – |
| O=C1Nc2cc([N+](=O)[O-])ccc2N2CCCOC12 (centres undefined) | 41.9 | 99.5 | 92.8 | 77.4 | 51.3 | 12.1 | 0.98 | 2.08 | > 300 | >10 | – | – | – | – | – |
| Cn1c(=O)c(=O)n(CCCCCCl)c2ccc([N+](=O)[O-])cc21 | 61.4 | 70.2 | 66.2 | 52.2 | 45.7 | 40.1 | 22.1 | 0 | > 300 | >10 | – | – | – | – | – |
| CN1C(=O)CN(CCN2CCCCC2)c2ccc([N+](=O)[O-])cc21 | 29.9 | 100 | 100 | 96 | 59.6 | 13.9 | 7.8 | 0 | > 300 | >10 | – | – | – | – | – |
| Cn1c(=O)c(=O)n(CCCCCCCl)c2ccc([N+](=O)[O-])cc21 | 25.4 | 92.6 | 84.7 | 75.5 | 53.1 | 42.1 | 31.6 | 14.14 | > 300 | >10 | – | – | – | – | – |
| O=C1CN(CCCCCCl)c2ccc([N+](=O)[O-])cc2N1 | – | – | – | – | – | – | – | – | – | – | – | 73 | – | – | – |
| O=C1CN(CCCCCCCl)c2ccc([N+](=O)[O-])cc2N1 | – | – | – | – | – | – | – | – | – | – | – | 73 | – | – | – |
| Cn1c(=O)c(=O)n(CCCCCBr)c2ccc([N+](=O)[O-])cc21 | 256 | 51.1 | 42.8 | 40.9 | 26.9 | 21.5 | 17.8 | – | – | – | – | – | – | – | – |
| O=c1[nH]c2cc([N+](=O)[O-])ccc2n(CCCCCl)c1=O | 151 | 94.9 | 40.6 | 21.4 | 18 | 12.7 | 8.25 | – | – | – | – | – | – | – | – |
| CN1C(=O)CN(CCCCCl)c2ccc([N+](=O)[O-])cc21 | – | – | – | – | – | – | – | – | – | – | – | 73 | – | – | – |

From ChEMBL document CHEMBL3576838, “Synthesis and in vitro and in vivo biological evaluation of substituted nitroquinoxalin-2-ones and 2,3-diones as novel trichomonacidal agents” (Eur J Med Chem, 2015)
